Source: US20260226073A1 (AURIGENE ONCOLOGY LIMITED, priority 2023, published 2026)

Experiments:
[1] = system: NFAT signaling pathway in Jurkat NFAT reporter cells; test: Jurkat NFAT reporter assay; type: cell-based; settings: Homo sapiens, 30 min with compound, then soluble anti-human CD3/CD28 antibody for 6 hours, luciferase readout, read-out: EC50 (Group)
How it was run: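 Jurkat cells bearing an NFAT-RE-driven luciferase reporter (1×10^5 per well) preincubated with Cbl-b inhibitor for 30 min, then stimulated 6 h with soluble anti-CD3/CD28. Luminescence read with Bio-Glo; values are fold change over anti-CD3/CD28-stimulated cells without inhibitor.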

[2] = target: T1, human recombinant CBL-b (human Biotin CBL-b recombinant protein a.a. 39-426) (Homo sapiens, UniProt Q13191); test: Biochemical assay for CBL-b inhibition (ligand displacement TR-FRET); type: binding; settings: 50 nM CBL-b, 0.3 μM Bodipy FL-Probe, read-out: IC50 (CBL-b inhibition, group)
T1 construct: human Biotin CBL-b recombinant protein a.a; 39-426; Biotin (biotinylated); made in house
How it was run: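 Biotinylated CBL-b (a.a. 39-426, 50 nM final) pre-incubated with compound 60 min at RT in HEPES/NaCl/Triton/BSA/TCEP buffer, then Bodipy FL probe (0.3 μM final) 60 min, then terbium-streptavidin 60 min. TR-FRET read at 665/615 nm; IC50 and % max inhibition from sigmoidal fits.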

T1 sequence (Q13191 39-426): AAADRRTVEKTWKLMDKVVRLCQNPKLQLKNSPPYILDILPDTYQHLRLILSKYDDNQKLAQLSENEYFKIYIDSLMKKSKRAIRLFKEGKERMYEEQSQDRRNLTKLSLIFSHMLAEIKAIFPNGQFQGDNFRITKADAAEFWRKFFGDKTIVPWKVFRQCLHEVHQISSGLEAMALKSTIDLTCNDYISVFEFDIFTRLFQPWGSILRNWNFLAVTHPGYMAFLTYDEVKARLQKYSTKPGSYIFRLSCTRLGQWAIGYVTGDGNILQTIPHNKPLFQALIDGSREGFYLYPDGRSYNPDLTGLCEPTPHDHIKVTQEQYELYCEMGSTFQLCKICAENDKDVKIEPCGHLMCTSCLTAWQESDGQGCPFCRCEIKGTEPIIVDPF

Row | SMILES | EC50 [1] | IC50 [2]
1 | Cn1cnnc1CC1(c2ccc3c(c2)C(=O)N(c2cc(CNCC4CC4)cc(Cl)n2)C3)CC(C#N)C1 (stereo not shown) [Compound 156] | 0.3 to 1 µM | < 0.08 µM
2 | Cn1cnnc1CC1(c2ccc3c(c2)C(=O)N(c2cc(CN4CCCCCC4)cc(Cl)n2)C3)COC1 [Compound 157] | < 0.3 µM | < 0.08 µM
3 | Cn1cnnc1CC1(c2ccc3c(c2)C(=O)N(c2cc(CNCCC(F)(F)F)cc(Cl)n2)C3)CC(C#N)C1 (stereo not shown) [Compound 158, 3-(2-(6-Chloro-4-(((3,3,3-trifluoropropyl)amino)methyl)pyridin-2-yl)-3-oxoisoindolin-5-yl)-3-((4-methyl-4H-1,2,4-triazol-3-yl)methyl)cyclobutane-1-carbonitrile] | 1 to 10 µM | < 0.08 µM
4 | Cn1cnnc1CC1(c2ccc3c(c2)C(=O)N(c2cc(CNCC4CCCC4)cc(Cl)n2)C3)COC1 [Compound 159, 2-(6-Chloro-4-(((cyclopentylmethyl)amino)methyl)pyridin-2-yl)-6-(3-((4-methyl-4H-1,2,4-triazol-3-yl)methyl)oxetan-3-yl)isoindolin-1-one] | < 0.3 µM | < 0.08 µM
5 | Cn1cnnc1CC1(c2ccc3c(c2)C(=O)N(c2cc(CNCC4CCC4)cc(C(F)(F)F)n2)C3)COC1 [Compound 162, 2-(4-(((Cyclobutylmethyl)amino)methyl)-6-(trifluoromethyl)pyridin-2-yl)-6-(3-((4-methyl-4H-1,2,4-triazol-3-yl)methyl)oxetan-3-yl)isoindolin-1-one] | < 0.3 µM | < 0.08 µM
6 | Cn1cnnc1CC1(c2ccc3c(c2)C(=O)N(c2cc(CNCC4CCC4)cc(Cl)n2)C3)CCC1 [Compound 168] | < 0.3 µM | < 0.08 µM
7 | Cn1cnnc1CC1(c2ccc3c(c2)C(=O)N(c2cc(CNCC4CC(F)(F)C4)cc(Cl)n2)C3)COC1 [Compound 169, 2-(6-Chloro-4-((((3,3-difluorocyclobutyl)methyl)amino)methyl)pyridin-2-yl)-6-(3-((4-methyl-4H-1,2,4-triazol-3-yl)methyl)oxetan-3-yl)isoindolin-1-one] | < 0.3 µM | < 0.08 µM
8 | Cn1cnnc1CC1(c2ccc3c(c2)C(=O)N(c2cc(CNCC4(C)CCC4)cc(Cl)n2)C3)COC1 [Compound 172, 2-(6-Chloro-4-((((1-methylcyclobutyl)methyl)amino)methyl)pyridin-2-yl)-6-(3-((4-methyl-4H-1,2,4-triazol-3-yl)methyl)oxetan-3-yl)isoindolin-1-one] | 0.3 to 1 µM | < 0.08 µM
9 | Cn1cnnc1CC1(c2ccc3c(c2)C(=O)N(c2cc(CNCC4CC4(F)F)cc(Cl)n2)C3)COC1 (stereo not shown) [Compound 175, 2-(6-Chloro-4-((((2,2-difluorocyclopropyl)methyl)amino)methyl)pyridin-2-yl)-6-(3-((4-methyl-4H-1,2,4-triazol-3-yl)methyl)oxetan-3-yl)isoindolin-1-one] | 0.3 to 1 µM | < 0.08 µM
10 | CC1CN(Cc2cc(Cl)nc(N3Cc4ccc(C5(Cc6nncn6C)COC5)cc4C3=O)c2)CCC1(F)F (stereo not shown) [Compound 178] | 0.3 to 1 µM | < 0.08 µM
11 | Cn1cnnc1CC1(c2ccc3c(c2)C(=O)N(c2cc(CNCC4CCC4)cc(Cl)n2)C3)CC(C#N)C1 (stereo not shown) [Compound 182, 3-(2-(6-Chloro-4-(((cyclobutylmethyl)amino)methyl)pyridin-2-yl)-3-oxoiso-indolin-5-yl)-3-((4-methyl-4H-1,2,4-triazol-3-yl)methyl)cyclobutane-1-carbonitrile] | < 0.3 µM | < 0.08 µM
12 | Cn1cnnc1CC1(c2ccc3c(c2)C(=O)N(c2cc(CNCC4(F)CCC4)cc(Cl)n2)C3)COC1 [Compound 185] | 1 to 10 µM | < 0.08 µM
13 | Cn1cnnc1CC1(c2ccc3c(c2)C(=O)N(c2cc(CNCC(C)(C)O)cc(Cl)n2)C3)COC1 [Compound 187] | 1 to 10 µM | < 0.08 µM
14 | Cn1cnnc1CC1(c2ccc3c(c2)C(=O)N(c2cc(CNCC4CCCO4)cc(Cl)n2)C3)COC1 (stereo not shown) [Compound 188, 2-(6-Chloro-4-((((tetrahydrofuran-2-yl)methyl)amino)methyl)pyridin-2-yl)-6-(3-((4-methyl-4H-1,2,4-triazol-3-yl)methyl)oxetan-3-yl)isoindolin-1-one] | 0.3 to 1 µM | < 0.08 µM
15 | Cn1cnnc1CC1(c2ccc3c(c2)C(=O)N(c2cc(CNCc4cscn4)cc(Cl)n2)C3)COC1 [Compound 189] | 1 to 10 µM | < 0.08 µM
16 | CC(Cc1nncn1C)Nc1ccc2c(c1)C(=O)N(c1cc(CN3CCC[C@H](C)C3)cc(Cl)n1)C2 (stereo partly shown) [Compound 190] | 1 to 10 µM | < 0.08 µM

Row | SMILES | EC50 [1] | IC50 [2]
17 | Cn1cnnc1CC1(c2ccc3c(c2)C(=O)N(c2cc(CNC4CCCC4O)cc(Cl)n2)C3)COC1 (stereo not shown) [Compound 193, 2-(6-Chloro-4-(((2-hydroxycyclopentyl)amino)methyl)pyridin-2-yl)-6-(3-((4-methyl-4H-1,2,4-triazol-3-yl)methyl)oxetan-3-yl)isoindolin-1-one] | 1 to 10 µM | < 0.08 µM
18 | CC1CN(Cc2cc(Cl)nc(N3Cc4ccc(C5(Cc6nncn6C)COC5)cc4C3=O)c2)CC1F (stereo not shown) [Compound 197] | 0.3 to 1 µM | < 0.08 µM
19 | Cc1nc(N2Cc3ccc(C4(Cc5nncn5C)COC4)cc3C2=O)cc(CNCC2CC2)c1F [Compound 198] | 1 to 10 µM | < 0.08 µM
20 | CC(NCC1CC1(F)F)c1cc(Cl)nc(N2Cc3ccc(C4(Cc5nncn5C)COC4)cc3C2=O)c1 (stereo not shown) [Compound 199, 2-(6-Chloro-4-(1-(((2,2-difluorocyclopropyl)methyl)amino)ethyl)pyridin-2-yl)-6-(3-((4-methyl-4H-1,2,4-triazol-3-yl)methyl)oxetan-3-yl)isoindolin-1-one] | < 0.3 µM | < 0.08 µM
21 | Cn1cnnc1CC1(c2ccc3c(c2)C(=O)N(c2cc(CNC4CCCC4)cc(Cl)n2)C3)COC1 [Compound 201, 2-(6-Chloro-4-((cyclopentylamino)methyl)pyridin-2-yl)-6-(3-((4-methyl-4H-1,2,4-triazol-3-yl)methyl)oxetan-3-yl)isoindolin-1-one] | < 0.3 µM | < 0.08 µM
22 | CC(CNCc1cc(Cl)nc(N2Cc3ccc(C4(Cc5nncn5C)COC4)cc3C2=O)c1)C(F)(F)F (stereo not shown) [Compound 202, 2-(6-Chloro-4-(((3,3,3-trifluoro-2-methylpropyl)amino)methyl)pyridin-2-yl)-6-(3-((4-methyl-4H-1,2,4-triazol-3-yl)methyl)oxetan-3-yl)isoindolin-1-one] | < 0.3 µM | < 0.08 µM
23 | CC(NCc1cscn1)c1cc(Cl)nc(N2Cc3ccc(C4(Cc5nncn5C)COC4)cc3C2=O)c1 (stereo not shown) [Compound 205] | < 0.3 µM | < 0.08 µM
24 | Cn1cnnc1CC1(c2ccc3c(c2)C(=O)N(c2cc(CNCC4(O)CCC4)cc(Cl)n2)C3)COC1 [Compound 216] | 1 to 10 µM | < 0.08 µM
25 | CC(NCC1CC1)c1cc(Cl)nc(N2Cc3ccc(C4(Cc5nncn5C)CC(C#N)C4)cc3C2=O)c1 (stereo not shown) [Compound 225, 3-(2-(6-Chloro-4-(1-((cyclopropylmethyl)amino)ethyl)pyridin-2-yl)-3-oxoiso-indolin-5-yl)-3-((4-methyl-4H-1,2,4-triazol-3-yl)methyl)cyclobutane-1-carbonitrile] | < 0.3 µM | < 0.08 µM
26 | Cn1cnnc1CC1(c2ccc3c(c2)C(=O)N(c2cc(CNCC4CC(F)(F)C4)cc(Cl)n2)C3)CC(C#N)C1 (stereo not shown) [Compound 227, 3-(2-(6-Chloro-4-((((3,3-difluorocyclobutyl)methyl)amino)methyl)pyridin-2-yl)-3-oxoisoindolin-5-yl)-3-((4-methyl-4H-1,2,4-triazol-3-yl)methyl)cyclobutane-1-carbo-nitrile] | 0.3 to 1 µM | < 0.08 µM
27 | Cn1cnnc1CC1(c2ccc3c(c2)C(=O)N(c2cc(CNCC4CC4(F)F)cc(Cl)n2)C3)CC(C#N)C1 (stereo not shown) [Compound 230, 3-(2-(6-Chloro-4-((((2,2-difluorocyclopropyl)methyl)amino)methyl)pyridin-2-yl)-3-oxoisoindolin-5-yl)-3-((4-methyl-4H-1,2,4-triazol-3-yl)methyl)cyclobutane-1-carbonitrile] | 0.3 to 1 µM | < 0.08 µM
28 | Cn1cnnc1CC1(c2ccc3c(c2)C(=O)N(c2cc(CNc4nccs4)cc(Cl)n2)C3)COC1 [Compound 237] | 1 to 10 µM | < 0.08 µM
29 | CC(NC(C)(C)C1CC1)c1cc(Cl)nc(N2Cc3ccc(C4(Cc5nncn5C)COC4)cc3C2=O)c1 (stereo not shown) [Compound 248] | < 0.3 µM | < 0.08 µM
30 | CCC(NC1CCCC1)c1cc(Cl)nc(N2Cc3ccc(C4(Cc5nncn5C)COC4)cc3C2=O)c1 (stereo not shown) [Compound 251, 2-(6-Chloro-4-(1-(cyclopentylamino)propyl)pyridin-2-yl)-6-(3-((4-methyl-4H-1,2,4-triazol-3-yl)methyl)oxetan-3-yl)isoindolin-1-one] | < 0.3 µM | < 0.08 µM
31 | COC1CCCC1NCc1cc(Cl)nc(N2Cc3ccc(C4(Cc5nncn5C)COC4)cc3C2=O)c1 (stereo not shown) [Compound 253, 2-(6-Chloro-4-(((2-methoxycyclopentyl)amino)methyl)pyridin-2-yl)-6-(3-((4-methyl-4H-1,2,4-triazol-3-yl)methyl)oxetan-3-yl)isoindolin-1-one] | < 0.3 µM | < 0.08 µM
32 | Cn1cnnc1CC1(c2ccc3c(c2)C(=O)N(c2cc(CNCC4CC4)cc(Cl)n2)C3)CC2(CCC2)C1 [Compound 255, 2-(6-Chloro-4-(((cyclopropylmethyl)amino)methyl)pyridin-2-yl)-6-(2-((4-methyl-4H-1,2,4-triazol-3-yl)methyl)spiro[3.3]heptan-2-yl)isoindolin-1-one] | 1 to 10 µM | < 0.08 µM
